In US6946458B2, “N-thiolated beta-lactams: novel antibacterial agents for methicillin-resistant Staphylococcus aureus” (University of South Florida, priority 1999, dated 2005):
Read-outs that look alike come from different tables or passages of the source.

What was measured:
Assay in all cases: Kirby-Bauer agar disk diffusion
S. simulans (ATCC 11631) = format: cell-based, Staphylococcus simulans; settings: 6-mm disks, 20 μg test compound
How it was run: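 Agar disk diffusion used 6-mm air-dried disks carrying 20 μg of compound. Values are mean diameters (mm) of the growth-inhibition zone at 24 h, from triplicate experiments. S. epidermidis and S. simulans were clinical isolates.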

MRSA USF659 = format: cell-based, Staphylococcus aureus; parameters: Kirby-Bauer Disc Diffusion Test Results: unit not given here; settings: for zone of inhibition at 20 µg/disc: Staphylococcus aureus, MRSA
How it was run: (§1)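 Kirby-Bauer disk diffusion on agar with 6-mm air-dried disks carrying 20 μg compound against β-lactamase-producing MRSA clinical isolates. Values are mean inhibition-zone diameters (mm, triplicate) read after 24 h.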

MRSA USF658 = format: cell-based, Staphylococcus aureus; parameters: Kirby-Bauer Disc Diffusion Test Results: unit not given here; settings: for zone of inhibition at 20 µg/disc: Staphylococcus aureus, MRSA
How it was run: as §1

MRSA USF652 = format: cell-based, Staphylococcus aureus; parameters: Kirby-Bauer Disc Diffusion Test Results: unit not given here; settings: for zone of inhibition at 20 µg/disc: Staphylococcus aureus, MRSA
How it was run: as §1

MRSA USF657 = format: cell-based, Staphylococcus aureus; parameters: Kirby-Bauer Disc Diffusion Test Results: unit not given here; settings: for zone of inhibition at 20 µg/disc: Staphylococcus aureus, MRSA
How it was run: as §1

MRSA USF654 = format: cell-based, Staphylococcus aureus; parameters: Kirby-Bauer Disc Diffusion Test Results: unit not given here; settings: for zone of inhibition at 20 µg/disc: Staphylococcus aureus, MRSA
How it was run: as §1

MRSA USF655 = format: cell-based, Staphylococcus aureus; parameters: Kirby-Bauer Disc Diffusion Test Results: unit not given here; settings: for zone of inhibition at 20 µg/disc: Staphylococcus aureus, MRSA
How it was run: as §1

MRSA USF653 = format: cell-based, Staphylococcus aureus; parameters: Kirby-Bauer Disc Diffusion Test Results: unit not given here; settings: for zone of inhibition at 20 µg/disc: Staphylococcus aureus, MRSA
How it was run: as §1

MRSA USF656 = format: cell-based, Staphylococcus aureus; parameters: Kirby-Bauer Disc Diffusion Test Results: unit not given here; settings: for zone of inhibition at 20 µg/disc: Staphylococcus aureus, MRSA
How it was run: as §1

[1] = Table 1, 6-mm disks, 20 μg test compound, 24 h, triplicate, read-out: zone of growth inhibition, average diameter
[2] = Table 4, 20 μg disk loading, read-out: Zones of Inhibition
[3] = Table 6, 20 μg disk loading, read-out: The Zone of Inhibition
[4] = Table 3, 6-mm disks, 20 μg test compound, 24 hours
[5] = Table 5, beta-lactamase producing strain

## CC1(C)S[C@@H]2[C@H](NC(=O)Cc3ccccc3)C(=O)N2[C@H]1C(=O)O [PenG, penicillin G, reference compound]
S. simulans (ATCC 11631); Staphylococcus simulans, ATCC11631, Table 1, 24 h, triplicate, read-out: zone of growth inhibition, average diameter
  zone of inhibition at 20 µg/disc: 13 mm
S. simulans (ATCC 11631); Table 3, 24 hours
  zone of growth inhibition, average diameter: 13 mm
MRSA USF659; [1]
  zone of inhibition at 20 µg/disc: 15 mm
MRSA USF659; [2]
  zone of inhibition at 20 µg/disc: 15 mm
MRSA USF659; [3]
  zone of inhibition at 20 µg/disc: 16 mm
MRSA USF659; [4]
  zone of growth inhibition, average diameter: 15 mm
MRSA USF659; [5]
  Kirby-Bauer Disc Diffusion Test Results: 16
MRSA USF658; [1]
  zone of inhibition at 20 µg/disc: 19 mm
MRSA USF658; [2]
  zone of inhibition at 20 µg/disc: 19 mm
MRSA USF658; [3]
  zone of inhibition at 20 µg/disc: 18 mm
MRSA USF658; [4]
  zone of growth inhibition, average diameter: 19 mm
MRSA USF658; [5]
  Kirby-Bauer Disc Diffusion Test Results: 18
MRSA USF652; [1]
  zone of inhibition at 20 µg/disc: 8 mm
MRSA USF652; [2]
  zone of inhibition at 20 µg/disc: 8 mm
MRSA USF652; [3]
  zone of inhibition at 20 µg/disc: 8 mm
MRSA USF652; [4]
  zone of growth inhibition, average diameter: 8 mm
MRSA USF652; [5]
  Kirby-Bauer Disc Diffusion Test Results: 8
MRSA USF657; [1]
  zone of inhibition at 20 µg/disc: 12 mm
MRSA USF657; [2]
  zone of inhibition at 20 µg/disc: 12 mm
MRSA USF657; [3]
  zone of inhibition at 20 µg/disc: 12 mm
MRSA USF657; [4]
  zone of growth inhibition, average diameter: 12 mm
MRSA USF657; [5]
  Kirby-Bauer Disc Diffusion Test Results: 12
MRSA USF654; [1]
  zone of inhibition at 20 µg/disc: 10 mm
MRSA USF654; [2]
  zone of inhibition at 20 µg/disc: 9 mm
MRSA USF654; [3]
  zone of inhibition at 20 µg/disc: 9 mm
MRSA USF654; [4]
  zone of growth inhibition, average diameter: 10 mm
MRSA USF654; [5]
  Kirby-Bauer Disc Diffusion Test Results: 10
MRSA USF655; [1]
  zone of inhibition at 20 µg/disc: 14 mm
MRSA USF655; [2]
  zone of inhibition at 20 µg/disc: 14 mm
MRSA USF655; [3]
  zone of inhibition at 20 µg/disc: 13 mm
MRSA USF655; [4]
  zone of growth inhibition, average diameter: 14 mm
MRSA USF655; Table 5
  Kirby-Bauer Disc Diffusion Test Results: 13
MRSA USF653; [1]
  zone of inhibition at 20 µg/disc: 16 mm
MRSA USF653; [2]
  zone of inhibition at 20 µg/disc: 15 mm
MRSA USF653; [3]
  zone of inhibition at 20 µg/disc: 15 mm
MRSA USF653; [4]
  zone of growth inhibition, average diameter: 16 mm
MRSA USF653; [5]
  Kirby-Bauer Disc Diffusion Test Results: 15
MRSA USF656; [1]
  zone of inhibition at 20 µg/disc: 12 mm
MRSA USF656; [2]
  zone of inhibition at 20 µg/disc: 12 mm
MRSA USF656; [3]
  zone of inhibition at 20 µg/disc: 10 mm
MRSA USF656; [4]
  zone of growth inhibition, average diameter: 12 mm
MRSA USF656; [5]
  Kirby-Bauer Disc Diffusion Test Results: 10
